Reference: patent US8435586B2, “Use of alkoxylated flavones to intensify the sensory impression of alcohol” (Symrise AG, priority 2007, dated 2013)

Test system: expert panel
Experiment: Tasting of ethanol and HMF-containing mixtures by an expert panel (5% sucrose solution)
Assay type: in vivo, human
Description: The test matrix used was a 5% sucrose solution having alcohol contents of 4 and 10% by volume respectively. Added to each of the two sucrose solutions were • a) nothing, • b) 2 ppm of HMF87 from Example 1, • c) 2 ppm of HMF99 from Example 1, • d) 5 ppm of HMF87 from Example 1 and • e) 5 ppm of HMF99 from Example 1.
All of these solutions were tasted by an expert panel consisting of five experts in each case.

SMILES	difference between HMF87 and HMF99 in intensification of the alcohol impression (2 and 5 ppm, 4 and 10% by volume alcohol)	intensification of the alcohol impression compared with the samples without HMF (2 or 5 ppm of HMF87 or HMF99, 4 and 10% by volume alcohol, five experts)
COc1ccc(-c2oc3c(OC)c(OC)c(OC)c(OC)c3c(=O)c2OC)cc1OC [HMF99, 3,3′,4′,5,6,7,8-heptamethoxyflavone]	no significant difference	
COc1ccc(-c2oc3c(OC)c(OC)c(OC)c(OC)c3c(=O)c2OC)cc1OC [HMF, 3,3′,4′,5,6,7,8-heptamethoxyflavone]		highly significant intensification of the alcohol impression
